# Experimental data reported in US10603325B2, “Methods of treating age-related symptoms in mammals and compositions therefor” (University of Maryland, priority 2014, dated 2020).
# “Also recorded” adds a separate entry of the source.
# Experiments:
# progerin in HGPS cells = assay: Confocal microscopy of progerin distribution; type: cell-based, human; details: MB treated HGPS cells, anti-progerin antibody staining
# Skin tissues = assay: Skin hydration test (DPM9003); type: cell-based; details: MB for 2 weeks
# Method: Skin tissues were treated with MB for 2 weeks, then skin hydration was detected by using DPM9003 with 4 mm probe. […] See the results obtained in FIG. 13. The noted small variations appear to have been due to pressure and leakage of medium.
# [1] = test system: EpiDerm Full Thickness (EFT-412); assay: ECM gene expression analysis (quantitative PCR array); type: cell-based; details: MB for two weeks
# Method: The expression of ECM genes were analyzed by quantitative PCR array on EpiDerm Full Thickness (EFT-412).
# EFT-412 tissues were treated with MB for 2 weeks. […] Using RCP arrays for ECM remodeling genes. See results obtained in FIG. 14.
# skin fibroblast cells = assay: Cell viability after H2O2 insults; type: cell-based, human; details: H2O2 1 mM, 60 minutes; low and high concentrations of MB
# Method: MB or other antioxidant treated skin fibroblast cells were incubated with PBS containing H2O2 at 1 mM for 60 minutes. The cells were then washed three times using PBS and subjected to a cellular stress assay (as described above in 2). See the results obtained in FIG. 11.
# [2] = test system: normal and HGPS fibroblasts; assay: ROS assays by flow cytometry (MitoSOX, DCFDA); type: cell-based, human
# Method: (§1) (Upper panel). Normalized relative HP1α protein levels in each sample are shown in the lower graph.
# (§2) To evaluate the effects of MB on mitochondria, ATP levels, mitochondrial superoxide (MitoSOX) and overall intracellular ROS (DCFDA) in Mock or MB-treated cells.
# To measure mitochondrial superoxide, MB or other antioxidant treated skin fibroblast cells cultured on 60-mm dishes were incubated with fresh complete medium containing 5 μM MitoSOXRed (Life Technologies) at 37° C. After 30 minutes, stained cells were harvested by trypsin digestion and rinsed twice with PBS. Single cell suspensions in 400 μl PBS were prepared for FACS analysis (FACS Canto II; BD). MitoSOX Red was excited by laser at 488 nm, and the data was collected at 582±21 nm. See results in FIG. 10.
# To measure mitochondrial superoxide, cells grown on 60-mm dishes were incubated with fresh complete medium containing 5 μM MitoSOX Red (Life Technologies, M36008) at 37° C. After 30 minutes, stained cells were harvested by trypsin digestion and rinsed twice with PBS. Single cell suspensions in 400 μl PBS were prepared for FACS analysis (FACS Canto II; BD). […] Mitochondrial membrane potential (MMP, Life Technologies, M34152) and Annexin V-positive apoptotic cells (BD Pharmingen, 556547) were measured according to manufacturer's protocol. Flow cytometry was performed by FACS Cantoll (BD) and the data were analyzed by FlowJo Software.
# [3] = test system: normal and HGPS fibroblasts; assay: ATP assay; type: cell-based, human; details: MB 100 nM, 5 weeks, vs mock
# Method: as §1, §2
# Intracellular ATP content was measured by using luminescence ATP detection System (ATPlite, PerkinElmer). Briefly, fibroblast cells were harvested with 0.05% trypsin-EDTA and counted. The same number of 2,500 cells from each fibroblast sample was seeded onto a 96-well black plate (triplicate). After the cells had been lysed with the lysis buffer for five minutes, the substrate solution was added and mixed for another five minutes to conduct the reaction for light generation. After dark adaption for 10 minutes, the luminescence intensity of each well was acquired at luminescence mode with SoftMax Pro software connecting to SpectraMax M5 Microplate Reader.
# [4] = test system: Epiderm Full Thickness (EFT-412) skin tissue; assay: Histological analysis (H&E) of skin tissue; type: cell-based; details: MB at various concentration for two weeks
# From the text: H&E staining on the MB treated skin tissues. […] See the results obtained in FIG. 15.
# HGPS cells [5] = assay: Senescence: SA-β-gal assay and p16 expression analysis; type: cell-based, human; details: MB-treated vs mock-treated HGPS cells
# Method: SA-β-gal activity assay was performed according to the manufacturer's protocol (#9860; Cell Signaling). Briefly, fibroblasts cells grown on six-well plate were fixed in 1× fixative solution containing 2% formaldehyde and […] for 10 minutes, and then stained overnight at 37° C. with the (3-galactosidase staining solution at pH 6.0 for 15 hours. Images were acquired by Zeiss AX10 microscope with a SPOT PURSUIT camera.
# [6] = test system: mitochondria in normal and HGPS fibroblasts; assay: TEM scoring of mitochondrial abnormalities; type: cell-based, human; details: MB 100 nM, 8 weeks
# Method: as §1, §2
# (§3) Passage-matched normal or HGPS skin fibroblasts were grown on 35-mm glass bottom dish until 80% confluence. Cells were prepared for transmission electron microscopic analysis following the protocol of McCord et al. Briefly, cells were fixed with 2.5% glutaraldehyde in 0.1 M sodium cacodylate (pH 7.4) for one hour at room temperature. Specimens were washed three times with 0.1 M sodium cacodylate and post-fixed for one hour with 1% osmium tetroxide in 0.1 M sodium cacodylate at room temperature. After washing three times with distilled water, specimens were incubated with 2% aqueous uranyl acetate at room temperature. The specimens were dehydrated in ethanol gradients: 35% for 10min, 50% for 10min, 70% for 10min, for 95% for 10 min, and 100% for 3×5 min. […] Mitochondrial morphological quantification was conducted blindly by a trained TEM expert. Two observers scored over 360 mitochondria from 10 randomly selected cells in each group blindly. […] Over 300 mitochondria in either normal or HGPS lines were blindly scored according to these criteria.
# normal fibroblasts = assay: RNA-seq gene expression differential analysis; type: cell-based, human; details: Normal+Vehicle vs. Normal+MB, 100 nM
# Method: (§4) FIG. 6(A)-(B): Methylene Blue Rescues Gene Expression in HGPS Cells • (A) Pie chart showing the percentages and (B) the counted gene numbers of unaffected- and affected-genes in paired comparison among four groups (Normal+Vehicle vs. Progeria+Vehicle; Normal+Vehicle vs. Normal+MB; Progeria+Vehicle vs. Progeria+MB; and Normal+Vehicle+Progeria+MB).
# (§5) Chromatin re-organization after MB treatment may induce gene expression changes. To examine the effects of MB on gene expression, RNA-seq was conducted in Mock and MB treated normal and HGPS cells, and gene expression differential analysis was performed using Tophat and Cufflinks suite of tools (see Methods). The RNA-seq data was obtained from two biological replicates; each included four groups of samples (Normal+Vehicle; Normal+MB; HGPS+Vehicle; and HGPS+MB). Pairwise comparisons were conducted (FIG. 6A-B). Consistent with previous studies, there are more than 20% differentially expressed genes (up/down: 7.79%/14.18%) in HGPS cells vs. normal fibroblasts (FIG. 6A-1).
# (§6) For RNA sequencing experiments, the cell pellets of Normal or HGPS fibroblasts were collected from two individually cultured cells treated with vehicle or 100 nM MB from P15 or P16 to P20. Total RNA was extracted with Trizol (Life Sciences), followed by RNA precipitation with isopropanol, then purified using the RNeasy Mini Kit (Qiagen). The RNA quality was checked using Agilent 2100 Bioanalyzer showing good RIN numbers (8.90=9.70) in all eight samples. The RNA-seq sample preparation and sequencing were conducted according to the Illumina Truseq RNA sample preparation V2 guide by the IBBR Sequencing Core Facility at the University of Maryland. RNA-seq mapping and gene expression differential analysis was performed using Tophat and Cufflinks suite of tools as described previously by Trapnell et al.
# HGPS fibroblasts = assay: RNA-seq gene expression differential analysis; type: cell-based, human
# Method: as §4, §5, §6
# HGPS cells [7] = assay: Perinuclear heterochromatin (TEM) and HP1α immunostaining/western blotting; type: cell-based, human
# From the text: as §1
# Based on the results from FIG. 4 and FIGS. 5A-D, it was hypothesized that While MB is a universal mitochondrial-targeting antioxidant for both normal and HGPS cells, it has a specific role in HGPS cells by dislocating progerin away from the nuclear membrane. Previous studies reported that the anchorage of progerin to the nuclear membrane caused a loss of perinuclear heterochromatin in HGPS Cells. […] The rescue of heterochromatin loss by MB was further verified by immunostaining and western blotting using an antibody against heterochromatin protein 1alpha (HP1α).
# as §3, with “min. The infiltration was performed in EtOH: EPON resin mixture at various ratio from 1:1, 1:2, 1:3 or complete EPON for one hour each ratio. The specimens were finally embedded in complete EPON at 60° C. over night.” for “min.”
# [8] = test system: PGC-1α in normal and HGPS fibroblasts; assay: PGC-1α expression (western blot, quantitative RT-PCR); type: cell-based, human; details: MB 100 nM, 8 weeks
# [9] = HGPS+Vehicle vs. HGPS+MB, 100 nM
smiles,measurement,setting,value
"CN(C)c1ccc2nc3ccc(N(C)C)cc3[s+]c2c1.[Cl-] [MB, 3,7-bis(dimethylamino)-phenothiazin-5-ium chloride]",progerin distribution in nucleus,progerin in HGPS cells,clear redistribution of progerin from the nuclear rim into the nucleoplasm
same,skin hydration,Skin tissues,did not increase skin hydration
same,normal gene expression (3D skin tests),[1],little or no effect on normal gene expression
same,cell viability upon hydrogen peroxide treatment,skin fibroblast cells,significantly improved cell viability
same,"ROS levels (MitoSOX, DCFDA)","[2]; MB 100 nM, 8 weeks, vs mock",reductions in ROS levels
same,MitoSOX level (mitochondria specific superoxide),"[2]; four weeks treatment, normal and HGPS fibroblasts, comparison with NAC, MitoQ, MitoTEMPO",significant decrease of MitoSOX level
same,ATP production,[3],Significant improvements in ATP production
same,dermis / skin thickness,[4],increase dermis thickness; also recorded: Increases Skin Thickness
same,"senescence (SA-β-gal, p16 expression)",HGPS cells [5],younger than the mock-treated cells
same,number of severely defective mitochondria,[6],significant reduction in the number of severely defective mitochondria
same,"genes with significant expression changes, down",normal fibroblasts,0.14%
same,"genes with significant expression changes, up",normal fibroblasts,0.19%
same,"genes affected by MB, down",HGPS fibroblasts; [9],0.45%
same,"genes affected by MB, up",HGPS fibroblasts; [9],1.52%
same,number of differentially expressed genes,"HGPS fibroblasts; Normal+Vehicle vs. HGPS+MB, after one month of MB treatment",1674
same,HP1α protein level,"HGPS cells [7]; MB 100 nM, 6 weeks",upregulation of HP1α protein level
same,nuclear HP1α staining,"HGPS cells [7]; MB 100 nM, 6 weeks",increase in nuclear HP1α staining
same,perinuclear heterochromatin organization (TEM),HGPS cells [7]; MB 8 weeks,readily apparent restoration of perinuclear heterochromatin organization
same,expression of PGC-1α,[8],stimulated the expression of PGC-1α
